Literature values, collected in patent publication US20050202101A1, “Method and composition for preventing or reducing the symptoms of insulin resistance syndrome” (Interhealth Nutraceuticals Incorporated, priority 2001, published 2005).

Tested on: obese women
Details: with exercise

In the case of chromium picolinate, the body weight change is given as “significant weight gain”.
